Broadly, the Ki is the equilibrium dissociation constant of an inhibitor or competing ligand from its target. Low readings indicate tighter binding, high ones weaker binding.

The target of this assay is Ras-related C3 botulinum toxin substrate 1 (Mus musculus, UniProt P63001). Put plainly: wildtype Rac1 GTP binding inhibitors, SAR follow-up, biochemical, oxadiazole analogs, multiplex bead flow cytometry (AID 2027). (In general: In flow cytometry, cells or beads pass a laser one at a time.)

For `COc1ccc(-c2noc(CCC(=O)N3CCN(c4ccccc4F)CC3)n2)cc1` [1-[4-(2-fluorophenyl)piperazin-1-yl]-3-[3-(4-methoxyphenyl)-1,2,4-oxadiazol-5-yl]propan-1-one], the Ki turned out to be 100 nM.
